Values of other authors as cited in PMC9516332 (Frontiers in Oncology, 2022).
Read-outs that look alike come from different tables or passages of the source.

What was measured:
Conditions in all cases: cited from earlier work
[1] = molecular target: panel of 255 wild-type kinases (Homo sapiens, UniProt Q16644)
[2] = molecular target: T1, panel of 255 wild-type kinases (Homo sapiens, UniProt P29320)
T1 sequence (P29320 21-983): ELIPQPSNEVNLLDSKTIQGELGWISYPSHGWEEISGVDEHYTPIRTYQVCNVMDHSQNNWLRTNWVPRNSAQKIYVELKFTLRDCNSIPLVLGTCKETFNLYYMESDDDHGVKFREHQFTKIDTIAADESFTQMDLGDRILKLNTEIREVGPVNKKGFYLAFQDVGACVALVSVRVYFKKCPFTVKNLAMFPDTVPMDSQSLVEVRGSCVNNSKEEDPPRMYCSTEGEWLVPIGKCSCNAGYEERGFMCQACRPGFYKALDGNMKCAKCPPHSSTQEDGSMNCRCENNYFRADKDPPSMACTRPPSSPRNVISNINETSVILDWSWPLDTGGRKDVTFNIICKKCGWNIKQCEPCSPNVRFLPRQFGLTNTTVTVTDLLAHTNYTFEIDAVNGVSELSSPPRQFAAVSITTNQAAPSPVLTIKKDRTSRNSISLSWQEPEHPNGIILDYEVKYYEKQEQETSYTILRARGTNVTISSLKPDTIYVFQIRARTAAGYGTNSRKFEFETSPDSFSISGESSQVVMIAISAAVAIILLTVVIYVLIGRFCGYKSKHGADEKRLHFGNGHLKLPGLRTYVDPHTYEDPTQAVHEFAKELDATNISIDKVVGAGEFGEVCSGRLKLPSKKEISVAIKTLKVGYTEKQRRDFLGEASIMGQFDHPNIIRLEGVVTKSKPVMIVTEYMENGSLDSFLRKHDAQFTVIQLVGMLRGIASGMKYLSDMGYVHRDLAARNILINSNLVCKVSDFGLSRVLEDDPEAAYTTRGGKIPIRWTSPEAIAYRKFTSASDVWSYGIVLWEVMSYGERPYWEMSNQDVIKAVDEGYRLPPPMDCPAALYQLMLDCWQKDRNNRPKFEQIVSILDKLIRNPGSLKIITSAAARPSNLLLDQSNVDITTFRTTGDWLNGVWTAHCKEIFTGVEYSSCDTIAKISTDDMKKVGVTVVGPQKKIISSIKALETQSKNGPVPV

[3] = molecular target: T2, panel of 255 wild-type kinases (Homo sapiens, UniProt Q9UQB9)
T2 sequence (Q9UQB9 1-309): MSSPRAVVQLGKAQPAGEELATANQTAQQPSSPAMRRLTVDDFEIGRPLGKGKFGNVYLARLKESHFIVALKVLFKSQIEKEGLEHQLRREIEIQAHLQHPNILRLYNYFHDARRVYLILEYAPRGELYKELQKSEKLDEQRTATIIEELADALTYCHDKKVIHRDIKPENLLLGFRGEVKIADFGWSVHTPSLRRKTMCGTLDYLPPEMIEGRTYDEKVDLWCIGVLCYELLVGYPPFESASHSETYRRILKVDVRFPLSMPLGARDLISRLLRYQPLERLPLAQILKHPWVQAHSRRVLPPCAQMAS

[4] = molecular target: panel of 255 wild-type kinases (Homo sapiens, UniProt P78362)
[5] = molecular target: panel of 255 wild-type kinases (Homo sapiens, UniProt Q9P286)
[6] = molecular target: T3, panel of 255 wild-type kinases (Homo sapiens, UniProt P51817)
T3 sequence (P51817 1-358): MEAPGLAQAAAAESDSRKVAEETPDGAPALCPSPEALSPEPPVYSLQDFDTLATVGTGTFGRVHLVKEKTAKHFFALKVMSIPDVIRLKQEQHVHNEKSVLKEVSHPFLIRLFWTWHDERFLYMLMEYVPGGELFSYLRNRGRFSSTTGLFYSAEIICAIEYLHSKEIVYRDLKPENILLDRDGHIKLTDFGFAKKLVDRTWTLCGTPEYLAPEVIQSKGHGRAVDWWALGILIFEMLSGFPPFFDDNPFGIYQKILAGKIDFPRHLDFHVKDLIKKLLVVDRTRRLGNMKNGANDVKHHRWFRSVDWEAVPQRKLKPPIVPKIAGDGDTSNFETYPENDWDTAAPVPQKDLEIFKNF

[7] = molecular target: panel of 255 wild-type kinases (Homo sapiens, UniProt P17948)
[8] = molecular target: panel of 255 wild-type kinases (Homo sapiens, UniProt Q8N568)
[9] = molecular target: T4, panel of 255 wild-type kinases (Homo sapiens, UniProt Q96PF2)
T4 sequence (Q96PF2 1-358): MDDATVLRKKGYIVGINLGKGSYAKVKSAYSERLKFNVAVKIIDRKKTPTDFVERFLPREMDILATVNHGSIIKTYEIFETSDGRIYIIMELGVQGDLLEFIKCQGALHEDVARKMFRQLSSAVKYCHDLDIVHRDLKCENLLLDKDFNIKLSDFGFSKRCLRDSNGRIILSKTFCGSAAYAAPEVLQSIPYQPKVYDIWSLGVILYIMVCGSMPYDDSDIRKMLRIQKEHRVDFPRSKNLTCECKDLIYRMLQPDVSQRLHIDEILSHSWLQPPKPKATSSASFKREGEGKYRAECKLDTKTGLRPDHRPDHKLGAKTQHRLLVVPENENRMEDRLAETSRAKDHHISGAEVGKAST

[10] = MAPKAPK3, 1 µmol/L single concentration, ref DOI: 10.1158/1535-7163.MCT-18-0877
[11] = kinase EPHA3, 1 µmol/L single concentration, ref DOI: 10.1158/1535-7163.MCT-18-0877
[12] = AurC kinase assay, 1 µmol/L single concentration, ref DOI: 10.1158/1535-7163.MCT-18-0877
[13] = kinase SRPK2, 1 µmol/L single concentration, ref DOI: 10.1158/1535-7163.MCT-18-0877
[14] = PAK5, 1 µmol/L single concentration, ref DOI: 10.1158/1535-7163.MCT-18-0877
[15] = kinase PRKX, 1 µmol/L single concentration, ref DOI: 10.1158/1535-7163.MCT-18-0877
[16] = kinase FLT1, 1 µmol/L single concentration, ref DOI: 10.1158/1535-7163.MCT-18-0877
[17] = kinase DCAMKL2, 1 µmol/L single concentration, ref DOI: 10.1158/1535-7163.MCT-18-0877
[18] = kinase TSSK2, 1 µmol/L single concentration, ref DOI: 10.1158/1535-7163.MCT-18-0877
[19] = MAPKAPK3, 1 µmol/L single concentration, ref DOI: 10.1371/journal.pone.0092146
[20] = kinase EPHA3, 1 µmol/L single concentration, ref DOI: 10.1371/journal.pone.0092146
[21] = AurC kinase assay, 1 µmol/L single concentration, ref DOI: 10.1371/journal.pone.0092146
[22] = kinase SRPK2, 1 µmol/L single concentration, ref DOI: 10.1371/journal.pone.0092146
[23] = PAK5, 1 µmol/L single concentration, ref DOI: 10.1371/journal.pone.0092146
[24] = kinase PRKX, 1 µmol/L single concentration, ref DOI: 10.1371/journal.pone.0092146
[25] = kinase FLT1, 1 µmol/L single concentration, ref DOI: 10.1371/journal.pone.0092146
[26] = kinase DCAMKL2, 1 µmol/L single concentration, ref DOI: 10.1371/journal.pone.0092146
[27] = kinase TSSK2, 1 µmol/L single concentration, ref DOI: 10.1371/journal.pone.0092146

CC#CC(=O)N1CCC[C@H]1c1nc(-c2ccc(C(=O)Nc3ccccn3)cc2)c2c(N)nccn12 [acalabrutinib]
%-inhibition, MAPKAPK3 [1, 10]: -11%
%-inhibition at 1 µmol/L, EPHA3 [2, 11]: -2%
%-inhibition AurC [3, 12]: 7%
%-inhibition at 1 µmol/L, SRPK2 [4, 13]: 0.686%
%-inhibition, PAK5 [5, 14]: -0.37%
%-inhibition at 1 µmol/L, PRKX [6, 15]: -4.59%
%-inhibition at 1 µmol/L, FLT1 [7, 16]: -1.14%
%-inhibition at 1 µmol/L, DCAMKL2 [8, 17]: 4.63%
%-inhibition at 1 µmol/L, TSSK2 [9, 18]: -3%

CCc1cc2c(cc1N1CCC(N3CCOCC3)CC1)C(C)(C)c1[nH]c3cc(C#N)ccc3c1C2=O [alectinib]
%-inhibition, MAPKAPK3 [1, 10]: -0.429%
%-inhibition at 1 µmol/L, EPHA3 [2, 11]: 3.25%
%-inhibition AurC [3, 12]: 2.65%
%-inhibition at 1 µmol/L, SRPK2 [4, 13]: 93%
%-inhibition, PAK5 [5, 14]: 8%
%-inhibition at 1 µmol/L, PRKX [6, 15]: 1.81%
%-inhibition at 1 µmol/L, FLT1 [7, 16]: 2.23%
%-inhibition at 1 µmol/L, DCAMKL2 [8, 17]: 7%
%-inhibition at 1 µmol/L, TSSK2 [9, 18]: 7%

COc1cc(N2CCC(N3CCN(C)CC3)CC2)ccc1Nc1ncc(Cl)c(Nc2ccccc2P(C)(C)=O)n1 [brigatinib]
%-inhibition, MAPKAPK3 [1]: -0.903%
%-inhibition at 1 µmol/L, EPHA3 [2]: 0.198%
%-inhibition AurC [3]: 44%
%-inhibition at 1 µmol/L, SRPK2 [4]: 10%
%-inhibition, PAK5 [5]: 82%
%-inhibition at 1 µmol/L, PRKX [6]: 47%
%-inhibition at 1 µmol/L, FLT1 [7]: 74%
%-inhibition at 1 µmol/L, DCAMKL2 [8]: 52%
%-inhibition at 1 µmol/L, TSSK2 [9]: 79%

Cc1cc(Nc2ncc(Cl)c(Nc3ccccc3S(=O)(=O)C(C)C)n2)c(OC(C)C)cc1C1CCNCC1 [ceritinib]
%-inhibition, MAPKAPK3 [1, 10]: -10%
%-inhibition at 1 µmol/L, EPHA3 [2, 11]: 1.74%
%-inhibition AurC [3, 12]: 3.47%
%-inhibition at 1 µmol/L, SRPK2 [4, 13]: 80%
%-inhibition, PAK5 [5, 14]: 15%
%-inhibition at 1 µmol/L, PRKX [6, 15]: 11%
%-inhibition at 1 µmol/L, FLT1 [7, 16]: 16%
%-inhibition at 1 µmol/L, DCAMKL2 [8, 17]: 85%
%-inhibition at 1 µmol/L, TSSK2 [9, 18]: 75%

O=C(c1ccc(F)c(F)c1Nc1ccc(I)cc1F)N1CC(O)([C@@H]2CCCCN2)C1 [cobimetinib]
%-inhibition, MAPKAPK3 [1, 10]: 1.42%
%-inhibition at 1 µmol/L, EPHA3 [2, 11]: 2%
%-inhibition AurC [3, 12]: -2.68%
%-inhibition at 1 µmol/L, SRPK2 [4, 13]: 3%
%-inhibition, PAK5 [5, 14]: 0.678%
%-inhibition at 1 µmol/L, PRKX [6, 15]: 2.17%
%-inhibition at 1 µmol/L, FLT1 [7, 16]: -0.349%
%-inhibition at 1 µmol/L, DCAMKL2 [8, 17]: -9%
%-inhibition at 1 µmol/L, TSSK2 [9, 18]: -2.33%

C[C@@H](Oc1cc(-c2cnn(C3CCNCC3)c2)cnc1N)c1c(Cl)ccc(F)c1Cl [crizotinib]
%-inhibition, MAPKAPK3 [1, 19]: -13%
%-inhibition at 1 µmol/L, EPHA3 [2, 20]: 19%
%-inhibition AurC [3, 21]: 87%
%-inhibition at 1 µmol/L, SRPK2 [4, 22]: -2.33%
%-inhibition, PAK5 [5, 23]: 7%
%-inhibition at 1 µmol/L, PRKX [6, 24]: -7%
%-inhibition at 1 µmol/L, FLT1 [7, 25]: 53%
%-inhibition at 1 µmol/L, DCAMKL2 [8, 26]: 49%
%-inhibition at 1 µmol/L, TSSK2 [9, 27]: 0.896%

CC(C)(C)c1nc(-c2cccc(NS(=O)(=O)c3c(F)cccc3F)c2F)c(-c2ccnc(N)n2)s1 [dabrafenib]
%-inhibition, MAPKAPK3 [1, 19]: -11%
%-inhibition at 1 µmol/L, EPHA3 [2, 20]: 18%
%-inhibition AurC [3, 21]: 23%
%-inhibition at 1 µmol/L, SRPK2 [4, 22]: 11%
%-inhibition, PAK5 [5, 23]: 21%
%-inhibition at 1 µmol/L, PRKX [6, 24]: -1.55%
%-inhibition at 1 µmol/L, FLT1 [7, 25]: 62%
%-inhibition at 1 µmol/L, DCAMKL2 [8, 26]: 19%
%-inhibition at 1 µmol/L, TSSK2 [9, 27]: -1.73%

C=CC(=O)N1CCC[C@@H](n2nc(-c3ccc(Oc4ccccc4)cc3)c3c(N)ncnc32)C1 [ibrutinib]
%-inhibition, MAPKAPK3 [1, 10]: -6.5%
%-inhibition at 1 µmol/L, EPHA3 [2, 11]: 3.8%
%-inhibition AurC [3, 12]: 7%
%-inhibition at 1 µmol/L, SRPK2 [4, 13]: 3%
%-inhibition, PAK5 [5, 14]: 12%
%-inhibition at 1 µmol/L, PRKX [6, 15]: 0.66%
%-inhibition at 1 µmol/L, FLT1 [7, 16]: 73%
%-inhibition at 1 µmol/L, DCAMKL2 [8, 17]: -9%
%-inhibition at 1 µmol/L, TSSK2 [9, 18]: -4%

CO[C@@H]1[C@H](N(C)C(=O)c2ccccc2)C[C@H]2O[C@]1(C)n1c3ccccc3c3c4c(c5c6ccccc6n2c5c31)C(=O)NC4 [midostaurin]
%-inhibition, MAPKAPK3 [1, 10]: -7%
%-inhibition at 1 µmol/L, EPHA3 [2, 11]: 8%
%-inhibition AurC [3, 12]: 100%
%-inhibition at 1 µmol/L, SRPK2 [4, 13]: 25%
%-inhibition, PAK5 [5, 14]: 37%
%-inhibition at 1 µmol/L, PRKX [6, 15]: 97%
%-inhibition at 1 µmol/L, FLT1 [7, 16]: 95%
%-inhibition at 1 µmol/L, DCAMKL2 [8, 17]: 8%
%-inhibition at 1 µmol/L, TSSK2 [9, 18]: 24%
